Assay results reported in ChEMBL document CHEMBL1139242, “Peptide deformylase inhibitors of Mycobacterium tuberculosis: synthesis, structural investigations, and biological results” (Bioorg Med Chem Lett, 2008).
Values after ≈ are worked out from the molar mass of the structure shown.

system: Mycobacterium tuberculosis; test: Antimicrobial activity against Mycobacterium bovis BCG after 4 days by alamar blue assay; format: functional; details: variant bovis BCG, 96 h

| SMILES | MIC |
| --- | --- |
| CCCC[C@H](CN(O)C=O)C(=O)N1CCC[C@H]1c1nc2ccccc2[nH]1 | 0.6 µg/mL (≈ 1.67 µM) |
| O=CN(O)C[C@@H](CC1CC1)C(=O)N1CCC[C@H]1c1nc2ccccc2o1 | 1.2 µg/mL (≈ 3.36 µM) |
| CCCC[C@H](CC(=O)O)C(=O)N1CCC[C@H]1c1nc2ccccc2o1 | 9 µg/mL (≈ 26.1 µM) |
| CCCC[C@H](C(=O)NO)C(=O)N1CCC[C@H]1c1nc2ccccc2[nH]1 | 4.5 µg/mL (≈ 13.1 µM) |
| CCCCC[C@H](CN(O)C=O)C(=O)N1CCC[C@H]1c1nc2ccccc2o1 | 0.6 µg/mL (≈ 1.61 µM) |
| CCC[C@H](CN(O)C=O)C(=O)N1CCC[C@H]1c1nc2ccccc2o1 | 4.5 µg/mL (≈ 13 µM) |
| O=CN(O)C[C@@H](Cc1ccccc1)C(=O)N1CCC[C@H]1c1nc2ccccc2[nH]1 | 9 µg/mL (≈ 22.9 µM) |
| CCC[C@H](CN(O)C=O)C(=O)N1CCC[C@H]1c1nc2ccccc2[nH]1 | 9 µg/mL (≈ 26.1 µM) |
| CCCCC[C@H](CN(O)C=O)C(=O)N1CCC[C@H]1c1nc2ccccc2[nH]1 | 1.2 µg/mL (≈ 3.22 µM) |
| CCCC[C@H](CC(=O)O)C(=O)N1CCC[C@H]1c1nc2ccccc2[nH]1 | 9 µg/mL (≈ 26.2 µM) |
| CCCC[C@H](CN(O)C=O)C(=O)N1CCC[C@H]1c1nc2ccccc2o1 | 0.6 µg/mL (≈ 1.67 µM) |
| CCCC[C@H](C(=O)NO)C(=O)N1CCC[C@H]1c1nc2ccccc2o1 | 4.5 µg/mL (≈ 13 µM) |
| O=CN(O)C[C@@H](Cc1ccccc1)C(=O)N1CCC[C@H]1c1nc2ccccc2o1 | 9 µg/mL (≈ 22.9 µM) |
| O=CN(O)C[C@@H](CC1CC1)C(=O)N1CCC[C@H]1c1nc2ccccc2[nH]1 | 1.2 µg/mL (≈ 3.37 µM) |
